From patent EP2292225A1 (priority 1997, dated 1998)
Several values for one entry are separate records, joined by “and”; a condition that tells them apart may be missing. Equal entries are not always repeated. Entries after “also recorded” stand apart in the source; their conditions may differ.

Assays:
[1] = test system: Vascular smooth muscle (BO54) cells; type: cell-based, baboon
left carotid artery [2] = assay: Periadventitial delivery of crystals in pluronic gel after balloon trauma; type: in vivo, rats
Description: To further evaluate the efficacy of crystalline taxol to inhibit neointimal formation in rats, four groups of 5-6 adult male rats underwent balloon trauma of the left carotid artery followed immediately by periadventitial delivery of 1, 0.1,0.01 or 0 mg of taxol crystals in 500 mg of a pluronic polymer in gel matrix. Fourteen days later, the rats were sacrificed, serum was collected and their carotid arteries were processed for histologic and morphometric analysis.

left carotid artery [3] = details: rat, in vivo
[4] = test system: balloon traumatized rabbit carotid artery; type: in vivo; details: rabbit, in vivo
[5] = Human liver slices distribution and metabolism study (HPLC); type: in vitro ADME; details: for % Activity in Media / % Activity in Tissue: 37°C
Description: (§1) ^3H-cytochalasin B (2 µg; 30 µCi/µg) was injected i.v. into BALB/c mice having urinary bladders that had been externally ligated. Animals were sacrificed at 15 minutes, 30 minutes, 2 hours or 16 hours post-injection. Organs were removed, blotted, weighed, air dried and assayed for radioactivity. Fifty - 73% of the total injected dose was accounted for in the tissues sampled (blood, heart, brain, muscle, bone, lung, liver, spleen, stomach, kidney, intestines, and urinary bladder). Clearance of ^3H-cytochalasin B from the blood was extremely rapid with less than 1% of the injected dose in circulation by 15 minutes. […] Cytochalasin B Metabolism. ^3H-cytochalasin B at a dose of 1.5 or 8 µg/ml was mixed with viable or non-viable human liver slices and media, and the amount of ^3H-cytochalasin B in media or tissue assessed by HPLC (Tables 8 and 9).

[6] = Tissue distribution after intravascular delivery of crystals; type: in vivo, swine; details: 10 µg/ml crystals in saline (saturated), three minutes under 1 atm
Description: The in vivo tissue distribution of cytochalasin B administered in crystalline form was evaluated in balloon traumatized swine femoral arteries after local delivery. A femoral artery of a Yorkshire crossbred swine was balloon traumatized by overinflation and rotation of a Vascu-Flo™ Silicone embolectomy catheter. Balloon trauma was immediately followed by intravascular delivery of 10 µg/ml ^3H-cytochalasin B crystals (Sigma Chemical Co., St. Louis, MO) in saline (saturated) for three minutes under 1 atm of pressure. Blood flow was resumed in the artery for five minutes prior to sacrifice of the animal.

[7] = Biodistribution of ^3H-cytochalasin B i.v.; type: in vivo, BALB/c mice
Description: as §1

[8] = MTT activity in human liver slices after 24 hour exposure; type: cell-based; details: for MTT Absorbance: 24 hours, mean +/- standard deviation of triplicate liver samples
Description: The cytotoxity of ^3H-cytochalasin B and its subsequent metabolites was also assessed by evaluating dose dependent changes in mitochondrial function by monitoring 3-[4, 5-dimethylthiazol-2yl]-2, 5-diphenyltetrazolium bromide (MTT) activity following a 24 hour exposure of human liver slices to the test agent (Table 10).

[9] = 1.5 µg/ml, Media/viable tissue, 1/4/24 Hours = r5/r6/r7
[10] = 1.5 µg/ml, Media/viable tissue, 1/4/24 Hours = r2/r3/r4
[11] = 8 µg/ml, Media/boiled tissue, 1/4/24 Hours = r8/r9/r10
[12] = 8 µg/ml, Media/viable tissue, 1/4/24 Hours = r2/r3/r4
[13] = 8 µg/ml, Media/viable tissue, 1/4/24 Hours = r5/r6/r7

Cc1ccc(C(=O)Nc2ccc(S(=O)(=O)O)c3cc(S(=O)(=O)O)cc(S(=O)(=O)O)c23)cc1NC(=O)c1cccc(NC(=O)Nc2cccc(C(=O)Nc3cc(C(=O)Nc4ccc(S(=O)(=O)O)c5cc(S(=O)(=O)O)cc(S(=O)(=O)O)c45)ccc3C)c2)c1 [suramin]
therapeutic range (area under the curve of ^3H-leucine assay greater than ^3H-thymidine assay) [1]: available therapeutic range

CC(=O)O[C@H]1C(=O)[C@@]2(C)[C@H]([C@H](OC(=O)c3ccccc3)[C@]3(O)C[C@H](OC(=O)[C@H](O)[C@@H](NC(=O)c4ccccc4)c4ccccc4)C(C)=C1C3(C)C)[C@]1(OC(C)=O)CO[C@@H]1C[C@@H]2O [taxol]
myonecrosis of the adjacent skeletal muscle (animals) (left carotid artery [2]; 0.01 mg crystals in 500 mg pluronic gel): 0/4
myonecrosis of the adjacent skeletal muscle (animals) (left carotid artery [2]; 0.1 mg crystals in 500 mg pluronic gel): 1/5
myonecrosis of the adjacent skeletal muscle (animals) (left carotid artery [2]; 1 mg crystals in 500 mg pluronic gel): 3/3
neointimal area less than that of control animals (left carotid artery [2]; 1 mg crystals in 500 mg pluronic gel, too few animals for statistics): 38%
neointimal area and neointimal/medial ratio compared to control animals (left carotid artery [2]; 0.1 and 0.01 mg, did not reach statistical significance): a reduction in their neointimal area and neointimal/medial ratio was observed
toxicity by dose group (left carotid artery [2]; crystals in pluronic gel): no (0.01 mg), minimal (0.1 mg) or limited (1.0 mg) toxicity
morphometry compared to untreated control animals (left carotid artery [3]): statistically significantly larger luminal areas and no neointimal proliferation
toxicity at the surgical site (left carotid artery [3]): significant toxicity at the surgical site
intimal proliferation [4]: no intimal or adventitial proliferation; also recorded: no intimal proliferation; also recorded: only minimal intimal proliferation

CC(=O)O[C@@H]1/C=C\[C@@](C)(O)C(=O)[C@@H](C)C/C=C\[C@H]2[C@H](O)C(C)=C(C)[C@H]3C(Cc4ccccc4)NC(=O)[C@]132 (stereo partly drawn) [cytochalasin C]
minimum effective dose (MED), DNA synthesis assay [1]: 0.01 µg/mL

O=[N+]([O-])OCC(CO[N+](=O)[O-])O[N+](=O)[O-] [nitroglycerin]
therapeutic range (area under the curve of ^3H-leucine assay greater than ^3H-thymidine assay) [1]: available therapeutic range

CN[C@@H]1C[C@H]2O[C@@](C)([C@@H]1OC)n1c3ccccc3c3c4c(c5c6ccccc6n2c5c31)C(=O)NC4 [staurosporin]
therapeutic range (area under the curve of ^3H-leucine assay greater than ^3H-thymidine assay) [1]: available therapeutic range

^3H-cytochalasin B
% Extractable Activity [5, 9]: 99.5% and 99.4% and 99.6%
%Non extractable Activity [5, 9]: 0.5% and 0.6% and 0.4%
% Activity in Media [5, 10]: 84% and 91%
% Activity in Tissue [5, 10]: 16% and 9%
% Metabolized of Extractable Activity ([5]; 8 µg/ml, Media Only, 1/4/24 Hours = r11/r12/r13): 5% and 4%
% Extractable Activity [5, 11]: 98.7% and 99.5% and 99.0%
% Metabolized of Extractable Activity [5, 11]: 5%
%Non extractable Activity [5, 11]: 1.3% and 0.5% and 1%
% Activity in Media [5, 11]: 87% and 83%
% Activity in Tissue [5, 11]: 13% and 17%
% Extractable Activity [5, 12]: 99.5% and 99.0% and 98.7%
%Non extractable Activity [5, 12]: 0.5% and 1% and 1.3%
% Activity in Media [5, 13]: 88% and 84% and 89%
% Activity in Tissue [5, 13]: 12% and 16% and 11%
metabolized ([5]; within 24 hours): 98%
amount delivered [6]: 31 µg
tissue distribution [6]: localized predominantly to the adventitia
^3H activity in all tissues ([7]; by 16 hours): below 1.5 % injected dose per gram of tissue
retention of ^3H activity ([7]; mouse, in vivo): Only liver, skeletal muscle and intestines showed significant retention
MTT Absorbance ([8]; 0.1 µg/ml): 0.844 +/- 0.014
MTT Absorbance ([8]; 1.5 µg/ml): 0.841 +/- 0.081
MTT Absorbance ([8]; 8.0 µg/ml): 0.850 +/- 0.082
cytotoxicity of ^3H-cytochalasin B or its subsequent metabolites ([8]; 24 hour exposure): not cytotoxic
